One test has as its target MELK (Homo sapiens, UniProt Q14680). Kind of test: Kinase assay: MELK activity, phosphorylation of FITC-labeled histone H3 peptide measured by IMAP fluorescence polarization. The note with it: read-out: IC50 (μM) (kinase assay). Format: biochemical. In a few lines: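 A FITC-labelled histone H3 peptide served as substrate, with compounds serially diluted to 1% DMSO final. Reactions were stopped with three volumes of IMAP progressive binding solution. After 0.5 h at room temperature, fluorescence polarization was read.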
Background: Polarisation of emitted light reports the rotation of a fluorescent probe.

Another test concerns T47D cells. Description: Cell-based assay: anti-proliferative activity, Cell Counting Kit-8, 72 hours (T47D). In a few lines:
(§1)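 T47D, A549 and BT-549 cells, with MELK-negative HT-1197 as control (MELK status checked by western blot), seeded at 2,000–3,000 cells/well. Growth measured by CCK-8 72 hours after inhibitor exposure; IC50 values calculated.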
(Tetrazolium assays rely on reduction of a dye to a coloured formazan, in cell work by metabolically active cells.)

The next test relates to A549 cells. Description: Cell-based assay: anti-proliferative activity, Cell Counting Kit-8, 72 hours (A549). The note with it: 72 hours. The method in brief: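 A549 cells seeded in 96-well plates and exposed to candidate inhibitors for 72 hours. Growth measured with Cell Counting Kit-8; IC50 values calculated from the dose response.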
In the next test the test system is HT-1197 cells. Description: Cell-based assay: anti-proliferative activity, Cell Counting Kit-8, 72 hours (HT-1197, negative control without MELK expression). The note with it: HT1197 cells (negative control, no MELK expression), 72 hours. In a few lines:
as §1

In a further test the test system is 22Rv1 cells. Kind of test: Cell-based assay: anti-proliferative activity, Cell Counting Kit-8, 72 hours (22Rv1).
Another test concerns DU4475 cells. Kind of test: Cell-based assay: anti-proliferative activity, Cell Counting Kit-8, 72 hours (DU4475).

Results on 17 molecules are retold here after US9120749B2, “Quinoline derivatives and MELK inhibitors containing the same” (ONCOTHERAPY SCIENCE, INC., priority 2010, dated 2015).

Structures can show the parent of a compound that is named as a salt. Where two headings read alike, the source gives them in different places.

Chain of MELK (Q14680 whole entry, looked up): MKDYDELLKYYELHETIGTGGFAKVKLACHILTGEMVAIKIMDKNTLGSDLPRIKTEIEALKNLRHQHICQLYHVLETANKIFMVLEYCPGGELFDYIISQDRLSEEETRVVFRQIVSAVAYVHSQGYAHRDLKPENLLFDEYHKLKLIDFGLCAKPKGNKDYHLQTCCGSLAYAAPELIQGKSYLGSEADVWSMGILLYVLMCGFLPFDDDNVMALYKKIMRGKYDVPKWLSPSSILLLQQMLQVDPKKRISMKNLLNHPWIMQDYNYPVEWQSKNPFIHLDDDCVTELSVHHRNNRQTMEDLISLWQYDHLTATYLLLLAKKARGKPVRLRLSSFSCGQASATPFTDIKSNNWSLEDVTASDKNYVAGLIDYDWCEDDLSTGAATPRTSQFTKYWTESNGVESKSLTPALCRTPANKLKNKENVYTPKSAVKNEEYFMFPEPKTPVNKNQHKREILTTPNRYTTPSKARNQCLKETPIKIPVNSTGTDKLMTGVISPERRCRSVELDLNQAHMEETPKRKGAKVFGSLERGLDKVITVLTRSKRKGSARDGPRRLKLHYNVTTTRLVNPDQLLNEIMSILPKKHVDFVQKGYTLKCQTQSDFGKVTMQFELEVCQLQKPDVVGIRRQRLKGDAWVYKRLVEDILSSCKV

In general, IC50 refers to the point on the concentration scale where inhibition reaches its midpoint. As for `CN(C)CCNc1ccc(Nc2c(C(=O)C3CC3)cnc3ccc(-c4cc(Cl)c(O)c(Cl)c4)cc23)cn1` [Example 748, cyclopropyl(6-(3,5-dichloro-4-hydroxyphenyl)-4-(6-(2-(dimethylamino)ethylamino)pyridin-3-ylamino)quinolin-3-yl)methanone hydrochloride], the IC50 on MELK (hydrochloride) amounted to 0.0026 µM; in the test on T47D cells (72 hours, hydrochloride), 0.088 µM; with A549 cells (hydrochloride) it was 0.069 µM; in the test on HT-1197 cells (hydrochloride), 1.6 µM; with 22Rv1 cells (Homo sapiens, 22Rv1, 72 h) it was 0.1 µM; in the test on DU4475 cells (hydrochloride), 0.032 µM.
`CC(=O)c1cnc2ccc(-c3cc(F)c(O)c(Cl)c3)cc2c1N[C@H]1CC[C@H](N(C)C)CC1` [Example 763, 1-{6-(3-Chloro-5-fluoro-4-hydroxyphenyl)-4-[trans-4-(dimethylamino)cyclohexylamino]quinolin-3-yl}ethanone]: the IC50 at MELK worked out at 0.0087 µM; with T47D cells (Homo sapiens, T47D, 72 h) it was 0.05 µM; with A549 cells (Homo sapiens, A549, 72 h) it was 0.27 µM; in the test on HT-1197 cells (Homo sapiens, HT1197, 72 h) it was 1.8 µM; in the test on 22Rv1 cells (Homo sapiens, 22Rv1, 72 h), 0.14 µM; in the test on DU4475 cells (Homo sapiens, DU-4475, 72 h), 0.093 µM.
As for `COc1cc(-c2ccc3ncc(C(=O)C4CC4)c(NC4CCN(C5CCNC5)CC4)c3c2)cc(Cl)c1O` (stereo not shown) [Example 764, (6-(3-chloro-4-hydroxy-5-methoxyphenyl)-4-(1-(pyrrolidin-3-yl)piperidin-4-ylamino)quinolin-3-yl)(cyclopropyl)methanone], the IC50 was found to be 0.0029 µM on MELK; 0.18 µM in the test on T47D cells (Homo sapiens, T47D, 72 h); 1.3 µM with A549 cells (Homo sapiens, A549, 72 h); 5.3 µM in the test on HT-1197 cells (Homo sapiens, HT1197, 72 h); 0.95 µM in the test with 22Rv1 cells (Homo sapiens, 22Rv1, 72 h); 0.18 µM in the test on DU4475 cells (Homo sapiens, DU-4475, 72 h).
Take `CC(=O)c1cnc2ccc(-c3cc(Cl)c(O)c(Cl)c3)cc2c1N[C@H]1CC[C@H](N(C)C)CC1` [Example 765, 1-{6-(3,5-Dichloro-4-hydroxyphenyl)-4-[trans-4-(dimethylamino)cyclohexylamino]quinolin-3-yl}ethanone]: the IC50 was 0.0022 µM on MELK; 0.081 µM in the test with T47D cells (Homo sapiens, T47D, 72 h); 0.17 µM in the test with A549 cells (Homo sapiens, A549, 72 h); 1.7 µM in the test with HT-1197 cells (Homo sapiens, HT1197, 72 h); 0.14 µM in the test on 22Rv1 cells (Homo sapiens, 22Rv1, 72 h); 0.047 µM in the test on DU4475 cells (Homo sapiens, DU-4475, 72 h).
On to `CC(=O)c1cnc2ccc(-c3cc(Cl)c(O)c(Cl)c3)cc2c1N[C@H]1CC[C@H](N(C)C)CC1` [Example 766, 1-(6-(3,5-dichloro-4-hydroxyphenyl)-4-(trans-4-(dimethylamino)cyclohexylamino)quinolin-3-yl)ethanone hydrochloride], for which the IC50 on MELK (hydrochloride) was found to be 0.0017 µM; in the test on T47D cells (72 hours, hydrochloride) it was 0.074 µM; with A549 cells (hydrochloride), 0.14 µM; in the test with HT-1197 cells (hydrochloride), 1 µM; in the test on 22Rv1 cells (hydrochloride), 0.1 µM; with DU4475 cells (hydrochloride), 0.06 µM.
`CC(=O)c1cnc2ccc(-c3cc(Cl)c(O)c(Cl)c3)cc2c1N[C@H]1CC[C@H](CN2CCCC2)CC1` [Example 767]: the IC50 at MELK was 0.0018 µM; in the test on T47D cells (Homo sapiens, T47D, 72 h), 0.12 µM; in the test with A549 cells (Homo sapiens, A549, 72 h), 0.16 µM; in the test on HT-1197 cells (Homo sapiens, HT1197, 72 h), 24 µM; with 22Rv1 cells (Homo sapiens, 22Rv1, 72 h), 0.15 µM; with DU4475 cells (Homo sapiens, DU-4475, 72 h), 0.083 µM.
In the case of `CC(=O)c1cnc2ccc(-c3cc(Cl)c(O)c(Cl)c3)cc2c1N[C@H]1CC[C@H](CN2CCCC2)CC1` [Example 768, 1-(6-(3,5-dichloro-4-hydroxyphenyl)-4-(trans-4-(pyrrolidin-1-ylmethyl)cyclohexylamino)quinolin-3-yl)ethanone hydrochloride], the IC50 was found to be 0.0015 µM on MELK (hydrochloride); 0.11 µM in the test with T47D cells (72 hours, hydrochloride); 0.13 µM with A549 cells (hydrochloride); 28 µM in the test with HT-1197 cells (hydrochloride); 0.11 µM in the test on 22Rv1 cells (hydrochloride); 0.07 µM with DU4475 cells (hydrochloride).
`CCC(=O)c1cnc2ccc(-c3cc(Cl)c(O)c(OC)c3)cc2c1Nc1ccc(CN(C)C)cc1` [Example 769, 1-(6-(3-chloro-4-hydroxy-5-methoxyphenyl)-4-(4-((dimethylamino)methyl)phenylamino)quinolin-3-yl)propan-1-one]: the IC50 at MELK amounted to 0.0049 µM; with T47D cells (Homo sapiens, T47D, 72 h), 0.12 µM; with A549 cells (Homo sapiens, A549, 72 h) it was 0.48 µM; in the test on HT-1197 cells (Homo sapiens, HT1197, 72 h) it was 2.8 µM; in the test on 22Rv1 cells (Homo sapiens, 22Rv1, 72 h), 0.79 µM; in the test with DU4475 cells (Homo sapiens, DU-4475, 72 h), 0.14 µM.
For the molecule `CCC(=O)c1cnc2ccc(-c3cc(F)c(O)c(Cl)c3)cc2c1Nc1ccc(CN(C)C)cc1` [Example 770, 1-(6-(3-chloro-5-fluoro-4-hydroxyphenyl)-4-((4-((dimethylamino)methyl)phenyl)amino)quinolin-3-yl)propan-1-one], the IC50 is 0.015 µM on MELK; 0.074 µM in the test on T47D cells (Homo sapiens, T47D, 72 h); 0.11 µM with A549 cells (Homo sapiens, A549, 72 h); 0.84 µM in the test on HT-1197 cells (Homo sapiens, HT1197, 72 h); 0.17 µM in the test with 22Rv1 cells (Homo sapiens, 22Rv1, 72 h); 0.062 µM in the test with DU4475 cells (Homo sapiens, DU-4475, 72 h).
`CCC(=O)c1cnc2ccc(-c3cc(Cl)c(O)c(Cl)c3)cc2c1Nc1ccc(CN(C)C)cc1` [Example 771, 1-(6-(3,5-dichloro-4-hydroxyphenyl)-4-((4-((dimethylamino)methyl)phenyl)amino)quinolin-3-yl)propan-1-one]: the 50% inhibitory concentration (IC50) at MELK was 0.0054 µM; with T47D cells (Homo sapiens, T47D, 72 h), 0.072 µM; with A549 cells (Homo sapiens, A549, 72 h), 0.095 µM; in the test with HT-1197 cells (Homo sapiens, HT1197, 72 h) it was 0.72 µM; in the test with 22Rv1 cells (Homo sapiens, 22Rv1, 72 h), 0.16 µM; with DU4475 cells (Homo sapiens, DU-4475, 72 h), 0.045 µM.
Take `CC(=O)c1cnc2ccc(-c3cc(Cl)c(O)c(Cl)c3)cc2c1N[C@H]1CC[C@H](CN2CCNCC2)CC1` [Example 772, 1-(6-(3,5-dichloro-4-hydroxyphenyl)-4-((trans-4-(piperazin-1-ylmethyl)cyclohexyl)amino)quinolin-3-yl)ethanone dihydrochloride]: the IC50 at MELK was 0.0021 µM; in the test on T47D cells (Homo sapiens, T47D, 72 h) it was 0.058 µM; in the test with A549 cells (Homo sapiens, A549, 72 h), 0.26 µM; with HT-1197 cells (Homo sapiens, HT1197, 72 h), 3.2 µM; in the test on 22Rv1 cells (Homo sapiens, 22Rv1, 72 h), 0.14 µM; with DU4475 cells (Homo sapiens, DU-4475, 72 h), 0.076 µM.
As to `CC(=O)c1cnc2ccc(-c3cc(F)c(O)c(Cl)c3)cc2c1Nc1ccc(N2CCC(N)C2)nc1` (stereo not shown) [Example 773, 1-(4-(6-(3-aminopyrrolidin-1-yl)pyridin-3-ylamino)-6-(3-chloro-5-fluoro-4-hydroxyphenyl)quinolin-3-yl)ethanone], the IC50 on MELK turned out to be 0.006 µM; in the test with T47D cells (Homo sapiens, T47D, 72 h), 0.0042 µM; in the test on A549 cells (Homo sapiens, A549, 72 h) it was 0.028 µM; in the test with HT-1197 cells (Homo sapiens, HT1197, 72 h), 0.7 µM; in the test on 22Rv1 cells (Homo sapiens, 22Rv1, 72 h) it was 0.0094 µM; in the test with DU4475 cells (Homo sapiens, DU-4475, 72 h) it was 0.017 µM.
Turning to `CN(C)CCNc1ccc(Nc2c(C(=O)C3CC3)cnc3ccc(-c4cc(F)c(O)c(Cl)c4)cc23)cn1` [Example 776, (6-(3-chloro-5-fluoro-4-hydroxyphenyl)-4-(6-(2-(dimethylamino)ethylamino)pyridin-3-ylamino)quinolin-3-yl)(cyclopropyl)methanone], the IC50 with T47D cells (Homo sapiens, T47D, 72 h) came to 0.073 µM; in the test on A549 cells (Homo sapiens, A549, 72 h), 0.08 µM; in the test on HT-1197 cells (Homo sapiens, HT1197, 72 h), 1.2 µM; in the test with 22Rv1 cells (Homo sapiens, 22Rv1, 72 h), 0.15 µM; in the test on DU4475 cells (Homo sapiens, DU-4475, 72 h), 0.038 µM.
On to `CN(C)CCNc1ccc(Nc2c(C(=O)C3CC3)cnc3ccc(-c4cc(F)c(O)c(Cl)c4)cc23)cn1` [Example 777, (6-(3-chloro-5-fluoro-4-hydroxyphenyl)-4-(6-(2-(dimethylamino)ethylamino)pyridin-3-ylamino)quinolin-3-yl)(cyclopropyl)methanone trihydrochloride], for which the IC50 in the test on T47D cells (72 hours, trihydrochloride) was 0.12 µM; in the test with A549 cells (trihydrochloride), 0.12 µM; in the test with HT-1197 cells (trihydrochloride) it was 1.6 µM; in the test on 22Rv1 cells (trihydrochloride), 0.17 µM; in the test on DU4475 cells (trihydrochloride), 0.047 µM.
For `CC(=O)c1cnc2ccc(-c3cc(Cl)c(O)c(Cl)c3)cc2c1N[C@H]1CC[C@H](CN2CCN(C)CC2)CC1` [Example 782, 1-(6-(3,5-dichloro-4-hydroxyphenyl)-4-(1R,4R)-4-((4-methylpiperazin-1-yl)methyl)cyclohexylamino)quinolin-3-yl)ethanone hydrochloride], the IC50 in the test with T47D cells (Homo sapiens, T47D, 72 h) was determined as 0.15 µM; with A549 cells (Homo sapiens, A549, 72 h), 0.23 µM; in the test on HT-1197 cells (Homo sapiens, HT1197, 72 h), 5.9 µM; in the test on 22Rv1 cells (Homo sapiens, 22Rv1, 72 h) it was 0.41 µM; in the test on DU4475 cells (Homo sapiens, DU-4475, 72 h), 0.16 µM.
The corresponding values for `CC(=O)c1cnc2ccc(-c3cc(Cl)c(O)c(Cl)c3)cc2c1N[C@H]1CCC[C@@H](CN2CCN(C)CC2)C1` [Example 835, 1-(6-(3,5-dichloro-4-hydroxyphenyl)-4-((1S,3R)-3-((4-methylpiperazin-1-yl)methyl)cyclohexylamino)quinolin-3-yl)ethanone hydrochloride] are 0.58 µM, 0.79 µM, 2.7 µM, 0.81 µM and 0.6 µM.
Turning to `CC(=O)c1cnc2ccc(-c3cc(Cl)c(O)c(Cl)c3)cc2c1Nc1cnn(C2CCN(C)CC2)c1` [Example 836, 1-(6-(3,5-dichloro-4-hydroxyphenyl)-4-((1-(1-methylpiperidin-4-yl)-1H-pyrazol-4-yl)amino)quinolin-3-yl)ethanone dihydrochloride], the IC50 at MELK (MELK kinase assay, IMAP fluorescence polarization, 50 micro-M ATP) stood at 0.0014 µM; in the test on T47D cells (Homo sapiens, T47D, 72 h) it was 0.35 µM; with A549 cells (Homo sapiens, A549, 72 h), 0.45 µM; with 22Rv1 cells (Homo sapiens, 22Rv1, 72 h) it was 0.27 µM; in the test on DU4475 cells (Homo sapiens, DU-4475, 72 h), 0.082 µM.
